The values that follow are results of earlier work, collected in patent US8377976B2, “N-hydroxyamidinoheterocycles as modulators of indoleamine 2,3-dioxygenase” (Incyte Corporation, priority 2006, dated 2013).

One series relates to LLC tumors. The conditions noted are these: C57B1/6 mice, versus placebo.
The subject of another series is P815 tumor. The conditions noted are these: pre-immunized immune-competent mice.
The next series concerns allogeneic concepti. The conditions noted are these: pregnant mice exposed to 1MT.
The subject of series [1] is CD123-positive dendritic cells. The conditions noted are these: mature and immature CD123-positive dendritic cells.
Series [2] has as its system peripheral blood lymphocytes (PBLs). The conditions noted are these: HeLa cells co-cultured with PBLs.
The subject of another series is tumor growth. The conditions noted are these: mice.

Consider `Cn1cc(C[C@H](N)C(=O)O)c2ccccc21` [Example 1-MT, 1-methyl-tryptophan], for which the formation of tumors entry in the series with LLC tumors is listed as “markedly delayed”. For the same compound, in the series with P815 tumor, the growth of tumors entry is given as “inhibited”. For the same compound, the rejection of concepti result with allogeneic concepti is on record as “rapid, T cell-induced rejection of all allogeneic concepti”. The “IDO suppressive activity on T-cell activity” value in series [1] is on record as “blocked”. For the same compound, in series [2], the “reduction in PBL proliferation upon treatment with interleukin-2 (IL2)” value was “reversed”. Besides, the “tumor growth in combination with chemotherapeutic agents” value with tumor growth is “synergize with chemotherapeutic agents to reduce tumor growth”.
